Reference: ChEMBL document CHEMBL3091325, “New aminopyrimidine derivatives as inhibitors of the TAM family” (Eur J Med Chem, 2013)
Activity calls are given as the source filed them. The rule behind the calls is not given here.

How the values were obtained:
[1] = biological target: T1, Tyrosine-protein kinase receptor TYRO3 (Homo sapiens) (UniProt Q06418); assay: Inhibition of recombinant human Tyro3 kinase domain using poly (Glu, Ala, Tyr) as substrate at 75 uM after 1.5 hrs by ELISA relative to control
T1 sequence (whole entry): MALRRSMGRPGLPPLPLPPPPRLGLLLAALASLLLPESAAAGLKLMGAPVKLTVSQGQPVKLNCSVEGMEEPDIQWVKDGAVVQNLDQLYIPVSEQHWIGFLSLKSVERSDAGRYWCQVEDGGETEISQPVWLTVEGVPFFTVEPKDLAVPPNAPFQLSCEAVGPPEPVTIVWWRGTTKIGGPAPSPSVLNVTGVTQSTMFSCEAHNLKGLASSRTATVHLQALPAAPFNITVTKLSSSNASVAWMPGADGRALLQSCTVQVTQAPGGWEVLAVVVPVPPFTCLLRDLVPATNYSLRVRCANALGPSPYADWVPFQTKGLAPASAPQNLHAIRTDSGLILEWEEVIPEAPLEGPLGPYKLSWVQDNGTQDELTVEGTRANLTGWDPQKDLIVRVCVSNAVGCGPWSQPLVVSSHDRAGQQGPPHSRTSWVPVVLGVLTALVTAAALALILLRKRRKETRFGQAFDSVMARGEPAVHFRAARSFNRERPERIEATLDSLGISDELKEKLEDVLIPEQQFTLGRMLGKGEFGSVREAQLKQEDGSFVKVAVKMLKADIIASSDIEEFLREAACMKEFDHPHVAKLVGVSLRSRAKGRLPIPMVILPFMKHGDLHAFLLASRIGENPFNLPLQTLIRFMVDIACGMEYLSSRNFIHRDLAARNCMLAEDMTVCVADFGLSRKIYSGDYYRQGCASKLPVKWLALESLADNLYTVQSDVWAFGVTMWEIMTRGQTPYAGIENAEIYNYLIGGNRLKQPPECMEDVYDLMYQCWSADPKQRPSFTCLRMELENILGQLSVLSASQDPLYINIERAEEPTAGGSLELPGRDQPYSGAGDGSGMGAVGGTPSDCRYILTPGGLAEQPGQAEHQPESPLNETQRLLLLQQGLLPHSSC

[2] = biological target: Hepatocyte growth factor receptor (Homo sapiens) (UniProt P08581); assay: Inhibition of Met (unknown origin) at 0.5 uM relative to control
[3] = biological target: Tyrosine-protein kinase ABL1 (Homo sapiens) (UniProt P00519); assay: Inhibition of non-phosphorylated form of Abl1 (unknown origin) at 75 uM relative to control
[4] = biological target: T2, Tyrosine-protein kinase Mer (Homo sapiens) (UniProt Q12866); assay: Inhibition of Mer (unknown origin) at 75 uM relative to control
T2 sequence (whole entry): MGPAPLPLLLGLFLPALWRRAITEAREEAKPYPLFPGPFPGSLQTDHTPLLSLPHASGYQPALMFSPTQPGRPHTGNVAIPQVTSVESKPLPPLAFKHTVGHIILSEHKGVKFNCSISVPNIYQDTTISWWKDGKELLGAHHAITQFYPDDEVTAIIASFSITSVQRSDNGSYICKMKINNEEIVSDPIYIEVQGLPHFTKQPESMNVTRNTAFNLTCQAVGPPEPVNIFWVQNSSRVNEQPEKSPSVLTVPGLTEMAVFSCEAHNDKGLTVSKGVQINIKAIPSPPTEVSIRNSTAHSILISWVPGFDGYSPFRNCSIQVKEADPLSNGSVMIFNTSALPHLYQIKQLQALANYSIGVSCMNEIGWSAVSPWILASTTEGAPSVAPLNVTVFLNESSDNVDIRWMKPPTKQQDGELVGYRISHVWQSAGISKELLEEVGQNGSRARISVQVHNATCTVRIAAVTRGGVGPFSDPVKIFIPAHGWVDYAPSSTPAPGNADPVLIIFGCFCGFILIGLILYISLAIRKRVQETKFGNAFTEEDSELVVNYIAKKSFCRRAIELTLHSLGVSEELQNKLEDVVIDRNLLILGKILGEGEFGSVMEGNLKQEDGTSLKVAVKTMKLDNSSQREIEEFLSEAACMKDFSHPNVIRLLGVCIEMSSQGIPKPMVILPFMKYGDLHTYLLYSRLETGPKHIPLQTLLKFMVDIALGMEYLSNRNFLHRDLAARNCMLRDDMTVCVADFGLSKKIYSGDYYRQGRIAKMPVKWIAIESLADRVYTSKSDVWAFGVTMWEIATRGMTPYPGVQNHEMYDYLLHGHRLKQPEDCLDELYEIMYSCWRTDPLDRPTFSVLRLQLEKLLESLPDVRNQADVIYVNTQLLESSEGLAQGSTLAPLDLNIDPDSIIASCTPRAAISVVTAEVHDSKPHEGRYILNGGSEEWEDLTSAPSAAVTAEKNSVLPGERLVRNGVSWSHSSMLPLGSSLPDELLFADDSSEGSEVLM

[5] = biological target: Tyrosine-protein kinase ABL1 (Homo sapiens) (UniProt P00519); assay: Inhibition of non-phosphorylated form of Abl1 (unknown origin) at 0.5 uM relative to control
[6] = biological target: T1, Tyrosine-protein kinase receptor TYRO3 (Homo sapiens); assay: Inhibition of recombinant human Tyro3 kinase domain using poly (Glu, Ala, Tyr) as substrate at 0.5 uM after 1.5 hrs by ELISA relative to control
[7] = biological target: T2, Tyrosine-protein kinase Mer (Homo sapiens); assay: Inhibition of Mer (unknown origin) at 0.5 uM relative to control
[8] = biological target: Tyrosine-protein kinase receptor UFO (Homo sapiens) (UniProt P30530); assay: Inhibition of Axl (unknown origin) at 0.5 uM relative to control
[9] = biological target: Fibroblast growth factor receptor 3 (Homo sapiens) (UniProt P22607); assay: Inhibition of FGFR3 (unknown origin) at 1 uM relative to control
[10] = biological target: Tyrosine-protein kinase ABL1 (Homo sapiens) (UniProt P00519); assay: Inhibition of phosphorylated form of Abl1 (unknown origin) at 75 uM relative to control
[11] = biological target: Tyrosine-protein kinase ABL1 (Homo sapiens) (UniProt P00519); assay: Inhibition of non-phosphorylated form of Abl1 (unknown origin) at 1 uM relative to control
[12] = biological target: Fibroblast growth factor receptor 3 (Homo sapiens) (UniProt P22607); assay: Inhibition of FGFR3 (unknown origin) at 75 uM relative to control
[13] = biological target: Tyrosine-protein kinase ABL1 (Homo sapiens) (UniProt P00519); assay: Inhibition of phosphorylated form of Abl1 (unknown origin) at 1 uM relative to control
[14] = biological target: T2, Tyrosine-protein kinase Mer (Homo sapiens); assay: Inhibition of Mer (unknown origin) at 1 uM relative to control
[15] = biological target: Fibroblast growth factor receptor 3 (Homo sapiens) (UniProt P22607); assay: Inhibition of FGFR3 (unknown origin) at 0.5 uM relative to control
[16] = biological target: Tyrosine-protein kinase receptor UFO (Homo sapiens) (UniProt P30530); assay: Inhibition of Axl (unknown origin) at 1 uM relative to control
[17] = biological target: T1, Tyrosine-protein kinase receptor TYRO3 (Homo sapiens); assay: Inhibition of recombinant human Tyro3 kinase domain using poly (Glu, Ala, Tyr) as substrate at 1 uM after 1.5 hrs by ELISA relative to control
[18] = biological target: Hepatocyte growth factor receptor (Homo sapiens) (UniProt P08581); assay: Inhibition of Met (unknown origin) at 75 uM relative to control
[19] = biological target: Hepatocyte growth factor receptor (Homo sapiens) (UniProt P08581); assay: Inhibition of Met (unknown origin) at 1 uM relative to control
[20] = biological target: Tyrosine-protein kinase receptor UFO (Homo sapiens) (UniProt P30530); assay: Inhibition of Axl (unknown origin) at 75 uM relative to control
[21] = biological target: Tyrosine-protein kinase ABL1 (Homo sapiens) (UniProt P00519); assay: Inhibition of phosphorylated form of Abl1 (unknown origin) at 0.5 uM relative to control
[22] = biological target: T1, Tyrosine-protein kinase receptor TYRO3 (Homo sapiens); assay: Inhibition of recombinant human Tyro3 kinase domain using poly (Glu, Ala, Tyr) as substrate up to 50 uM after 1.5 hrs by ELISA

Chain of Tyrosine-protein kinase receptor UFO (Homo sapiens) (P30530 whole entry, the tested form may be a part): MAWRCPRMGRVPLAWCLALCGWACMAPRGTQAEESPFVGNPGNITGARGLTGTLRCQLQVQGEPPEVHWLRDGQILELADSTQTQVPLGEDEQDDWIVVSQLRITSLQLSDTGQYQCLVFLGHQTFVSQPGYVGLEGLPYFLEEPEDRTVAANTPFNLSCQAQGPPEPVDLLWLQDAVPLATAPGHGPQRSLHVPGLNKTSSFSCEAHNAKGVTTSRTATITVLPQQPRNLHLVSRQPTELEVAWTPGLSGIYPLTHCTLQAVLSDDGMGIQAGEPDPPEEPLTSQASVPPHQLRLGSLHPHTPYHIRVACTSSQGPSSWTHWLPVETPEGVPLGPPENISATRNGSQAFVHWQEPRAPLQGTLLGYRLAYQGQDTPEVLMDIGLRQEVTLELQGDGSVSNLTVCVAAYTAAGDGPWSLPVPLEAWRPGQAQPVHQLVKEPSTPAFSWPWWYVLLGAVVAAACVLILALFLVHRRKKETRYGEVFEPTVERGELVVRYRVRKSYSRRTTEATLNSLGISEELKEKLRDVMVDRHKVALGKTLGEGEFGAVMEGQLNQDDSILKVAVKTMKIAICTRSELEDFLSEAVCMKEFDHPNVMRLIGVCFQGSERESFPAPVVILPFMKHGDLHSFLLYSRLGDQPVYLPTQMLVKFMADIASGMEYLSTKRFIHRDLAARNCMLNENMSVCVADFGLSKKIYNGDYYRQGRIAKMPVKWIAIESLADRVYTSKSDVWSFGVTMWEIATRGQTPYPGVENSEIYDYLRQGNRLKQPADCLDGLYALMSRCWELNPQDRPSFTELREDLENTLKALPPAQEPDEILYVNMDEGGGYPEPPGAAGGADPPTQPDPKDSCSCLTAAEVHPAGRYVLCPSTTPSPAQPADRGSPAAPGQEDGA
Chain of Hepatocyte growth factor receptor (Homo sapiens) (P08581 whole entry): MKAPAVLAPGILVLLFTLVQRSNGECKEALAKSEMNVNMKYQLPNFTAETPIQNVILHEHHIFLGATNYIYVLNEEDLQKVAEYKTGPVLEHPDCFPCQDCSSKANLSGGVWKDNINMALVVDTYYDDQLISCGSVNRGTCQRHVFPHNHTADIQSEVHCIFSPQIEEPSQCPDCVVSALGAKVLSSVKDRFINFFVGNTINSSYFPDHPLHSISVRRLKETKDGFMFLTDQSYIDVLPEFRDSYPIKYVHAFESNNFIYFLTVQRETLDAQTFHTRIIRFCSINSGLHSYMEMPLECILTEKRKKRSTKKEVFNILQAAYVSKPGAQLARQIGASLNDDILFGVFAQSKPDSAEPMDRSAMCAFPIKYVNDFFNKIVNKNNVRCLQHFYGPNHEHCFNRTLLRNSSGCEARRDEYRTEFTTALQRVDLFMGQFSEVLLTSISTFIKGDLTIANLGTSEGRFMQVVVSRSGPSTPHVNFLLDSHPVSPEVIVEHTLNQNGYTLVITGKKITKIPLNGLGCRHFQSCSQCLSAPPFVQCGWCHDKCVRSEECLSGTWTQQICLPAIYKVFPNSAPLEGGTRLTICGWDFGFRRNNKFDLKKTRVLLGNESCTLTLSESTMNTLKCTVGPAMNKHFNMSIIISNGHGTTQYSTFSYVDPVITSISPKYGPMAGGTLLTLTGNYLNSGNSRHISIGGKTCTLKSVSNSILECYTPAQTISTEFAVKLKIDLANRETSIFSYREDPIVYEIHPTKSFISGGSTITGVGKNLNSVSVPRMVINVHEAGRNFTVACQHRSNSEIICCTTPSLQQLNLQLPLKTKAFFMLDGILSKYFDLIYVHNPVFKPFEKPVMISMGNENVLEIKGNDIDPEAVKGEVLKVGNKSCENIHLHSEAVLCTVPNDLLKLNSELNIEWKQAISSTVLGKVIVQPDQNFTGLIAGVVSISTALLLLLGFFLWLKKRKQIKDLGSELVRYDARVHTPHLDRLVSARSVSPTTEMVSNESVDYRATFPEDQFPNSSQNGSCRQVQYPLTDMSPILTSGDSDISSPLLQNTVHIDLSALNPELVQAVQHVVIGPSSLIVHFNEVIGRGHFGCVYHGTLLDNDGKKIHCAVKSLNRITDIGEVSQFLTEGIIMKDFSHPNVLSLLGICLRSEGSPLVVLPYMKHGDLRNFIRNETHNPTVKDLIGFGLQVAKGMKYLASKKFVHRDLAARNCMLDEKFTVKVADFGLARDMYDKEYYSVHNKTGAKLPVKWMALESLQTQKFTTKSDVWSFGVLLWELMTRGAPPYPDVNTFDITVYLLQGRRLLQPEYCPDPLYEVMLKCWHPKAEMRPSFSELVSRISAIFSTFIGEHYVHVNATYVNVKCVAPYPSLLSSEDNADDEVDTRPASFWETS
Chain of Fibroblast growth factor receptor 3 (Homo sapiens) (P22607 23-806 limits assumed): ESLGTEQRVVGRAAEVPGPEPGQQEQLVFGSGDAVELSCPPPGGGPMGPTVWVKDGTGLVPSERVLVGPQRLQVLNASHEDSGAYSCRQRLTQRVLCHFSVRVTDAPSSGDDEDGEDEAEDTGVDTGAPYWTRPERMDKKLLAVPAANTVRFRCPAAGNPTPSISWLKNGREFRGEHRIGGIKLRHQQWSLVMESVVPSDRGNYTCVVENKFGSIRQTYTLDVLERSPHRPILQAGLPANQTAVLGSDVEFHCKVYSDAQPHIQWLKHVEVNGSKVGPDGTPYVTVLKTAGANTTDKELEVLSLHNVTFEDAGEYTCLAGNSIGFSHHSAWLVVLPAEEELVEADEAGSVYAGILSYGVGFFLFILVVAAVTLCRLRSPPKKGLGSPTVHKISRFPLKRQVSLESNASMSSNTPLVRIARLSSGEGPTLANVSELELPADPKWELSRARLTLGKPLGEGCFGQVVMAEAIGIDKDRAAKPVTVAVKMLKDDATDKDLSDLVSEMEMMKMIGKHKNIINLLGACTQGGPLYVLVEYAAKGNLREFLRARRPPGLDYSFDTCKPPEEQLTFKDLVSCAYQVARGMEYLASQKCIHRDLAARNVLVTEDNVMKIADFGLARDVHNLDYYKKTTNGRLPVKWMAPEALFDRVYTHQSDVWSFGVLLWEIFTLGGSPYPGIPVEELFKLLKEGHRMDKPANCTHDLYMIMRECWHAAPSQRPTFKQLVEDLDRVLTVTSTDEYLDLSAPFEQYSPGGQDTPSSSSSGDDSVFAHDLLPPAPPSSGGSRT
Chain of Tyrosine-protein kinase ABL1 (Homo sapiens) (P00519 whole entry, the tested form may be a part): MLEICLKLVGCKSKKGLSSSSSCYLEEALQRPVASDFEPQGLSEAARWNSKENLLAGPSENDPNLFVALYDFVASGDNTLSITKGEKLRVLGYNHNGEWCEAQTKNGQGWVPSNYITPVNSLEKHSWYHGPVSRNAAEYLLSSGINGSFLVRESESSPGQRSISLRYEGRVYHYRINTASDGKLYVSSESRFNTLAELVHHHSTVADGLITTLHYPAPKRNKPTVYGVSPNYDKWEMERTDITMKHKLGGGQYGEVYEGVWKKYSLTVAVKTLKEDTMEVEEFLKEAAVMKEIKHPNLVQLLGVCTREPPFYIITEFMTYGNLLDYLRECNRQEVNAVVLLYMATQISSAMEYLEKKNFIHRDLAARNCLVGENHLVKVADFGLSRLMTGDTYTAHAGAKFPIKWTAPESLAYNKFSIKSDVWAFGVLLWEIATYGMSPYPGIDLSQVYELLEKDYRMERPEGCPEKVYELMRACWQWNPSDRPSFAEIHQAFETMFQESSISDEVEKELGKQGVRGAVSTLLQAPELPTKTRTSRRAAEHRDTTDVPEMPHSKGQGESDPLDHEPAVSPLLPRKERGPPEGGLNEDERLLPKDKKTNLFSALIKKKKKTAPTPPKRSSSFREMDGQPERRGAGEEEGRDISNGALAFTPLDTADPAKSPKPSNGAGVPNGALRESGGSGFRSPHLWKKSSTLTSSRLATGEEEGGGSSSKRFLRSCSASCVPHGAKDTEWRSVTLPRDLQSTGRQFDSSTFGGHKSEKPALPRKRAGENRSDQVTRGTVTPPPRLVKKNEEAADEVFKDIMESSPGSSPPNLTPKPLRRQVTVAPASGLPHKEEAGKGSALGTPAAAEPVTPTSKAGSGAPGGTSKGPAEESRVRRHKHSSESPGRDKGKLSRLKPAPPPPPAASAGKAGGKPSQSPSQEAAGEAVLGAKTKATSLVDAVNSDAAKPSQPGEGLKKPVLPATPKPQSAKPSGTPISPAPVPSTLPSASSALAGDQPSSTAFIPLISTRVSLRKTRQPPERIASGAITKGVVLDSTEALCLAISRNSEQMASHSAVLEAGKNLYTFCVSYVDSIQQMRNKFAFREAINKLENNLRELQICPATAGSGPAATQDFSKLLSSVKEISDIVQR

Row | SMILES | inhibition [3] [%] | inhibition [6] [%] | inhibition [7] [%] | inhibition [8] [%] | inhibition [9] [%] | inhibition [11] [%] | inhibition [12] [%] | inhibition [13] [%] | inhibition [14] [%] | inhibition [15] [%] | inhibition [16] [%] | inhibition [17] [%] | inhibition [19] [%] | inhibition [20] [%] | inhibition [22] | other results
1 | Nc1cc(Oc2ccc(NC(=O)c3cccn(-c4ccc(F)cc4)c3=O)cc2)ncn1 | 94 | 41 | 73 | 85 | 0 | 31 | 3 | 0 | 82 | 0 | 95 | 75 | 98 | 100 | – | inhibition [1]: 81%; inhibition [2]: 95%; inhibition [4]: 100%; inhibition [5]: 14%; inhibition [10]: 26%; inhibition [18]: 97%; inhibition [21]: 0%
2 | COc1ccc(-n2cccc(C(=O)Nc3ccc(Oc4cc(On5nnc6ccccc65)ncn4)c(F)c3)c2=O)c(F)c1 | – | – | – | – | – | – | – | – | – | – | – | – | – | – | inactive | –
3 | Nc1cc(Oc2ccc(NC(=O)c3cccn(-c4ccc(F)c(F)c4)c3=O)cc2F)ncn1 | – | – | – | – | – | – | – | – | – | – | – | – | – | – | inactive | –
4 | COc1ccc(-n2cccc(C(=O)Nc3ccc(Oc4cc(N)ncn4)c(F)c3)c2=O)c(F)c1 | – | – | – | – | – | – | – | – | – | – | – | – | – | – | inactive | –
5 | O=C(Nc1ccc(Oc2ncnc3[nH]cnc23)c(F)c1)c1cccn(-c2ccc(F)cc2)c1=O | 66 | 73 | 77 | 98 | 0 | 32 | 16 | 0 | 93 | 0 | 100 | 94 | 98 | 98 | – | inhibition [1]: 100%; inhibition [2]: 93%; inhibition [5]: 17%; inhibition [10]: 20%; inhibition [18]: 95%; inhibition [21]: 0%
6 | COc1ccc(CNc2nccc(Oc3ccc(NC(=O)c4cccn(-c5ccc(F)cc5)c4=O)cc3F)n2)cc1 | – | – | – | – | – | – | – | – | – | – | – | – | – | – | inactive | –
7 | Nc1cc(Oc2ccc(NC(=O)c3cccn(-c4ccc(F)cc4F)c3=O)cc2F)ncn1 | 85 | 27 | 50 | 74 | 0 | 37 | 9 | 4 | 71 | 0 | 93 | 63 | 97 | 100 | – | inhibition [1]: 100%; inhibition [2]: 91%; inhibition [4]: 87%; inhibition [5]: 25%; inhibition [10]: 21%; inhibition [18]: 99%; inhibition [21]: 8%
8 | CNc1nccc(Oc2ccc(NC(=O)c3cccn(-c4ccc(F)cc4)c3=O)cc2F)n1 | – | – | – | – | – | – | – | – | – | – | – | – | – | – | inactive | –
9 | CNc1cc(Oc2ccc(NC(=O)c3cccn(-c4ccc(F)cc4)c3=O)cc2F)ncn1 | – | – | – | – | – | – | – | – | – | – | – | – | – | – | inactive | –
10 | Nc1nccc(Oc2ccc(NC(=O)c3cccn(-c4ccc(F)cc4)c3=O)cc2F)n1 | 32 | 61 | 94 | 96 | 0 | 50 | 12 | 0 | 95 | 0 | 100 | 75 | 100 | 100 | – | inhibition [2]: 99%; inhibition [5]: 27%; inhibition [10]: 30%; inhibition [18]: 99%; inhibition [21]: 0%
11 | O=C(Nc1ccc(Oc2cc(On3nnc4ccccc43)ncn2)c(F)c1)c1cccn(-c2ccc(F)c(F)c2)c1=O | – | – | – | – | – | – | – | – | – | – | – | – | – | – | inactive | –
12 | Cc1cc(F)ccc1-n1cccc(C(=O)Nc2ccc(Oc3cc(N)ncn3)c(F)c2)c1=O | 98 | 48 | 53 | 93 | 0 | 27 | 6 | 0 | 65 | 0 | 98 | 65 | 100 | 100 | – | inhibition [1]: 100%; inhibition [2]: 99%; inhibition [4]: 99%; inhibition [5]: 10%; inhibition [10]: 47%; inhibition [18]: 99%; inhibition [21]: 0%
13 | O=C(Nc1ccc(Oc2cc(On3nnc4ccccc43)ncn2)c(F)c1)c1cccn(-c2ccc(F)cc2F)c1=O | – | – | – | – | – | – | – | – | – | – | – | – | – | – | inactive | –
14 | O=C(Nc1ccc(Oc2cc(Cl)ncn2)c(F)c1)c1cccn(-c2ccc(F)cc2)c1=O | – | – | – | – | – | – | – | – | – | – | – | – | – | – | inactive | –
15 | O=C(Nc1ccc(Oc2cc(On3nnc4ccccc43)ncn2)c(F)c1)c1cccn(-c2ccc(F)cc2)c1=O | – | – | – | – | – | – | – | – | – | – | – | – | – | – | inactive | –
16 | CCOc1ccn(-c2ccc(F)cc2)c(=O)c1C(=O)Nc1ccc(Oc2ccnc(N)c2Cl)c(F)c1 | 100 | 96 | 98 | 99 | 0 | 98 | 0 | 35 | 98 | 0 | 99 | 99 | 95 | 99 | – | inhibition [1]: 92%; inhibition [4]: 95%
17 | COc1ccc(CNc2cc(Oc3ccc(NC(=O)c4cccn(-c5ccc(F)cc5)c4=O)cc3F)ncn2)cc1 | – | – | – | – | – | – | – | – | – | – | – | – | – | – | inactive | –
18 | Cc1cc(F)ccc1-n1cccc(C(=O)Nc2ccc(Oc3cc(On4nnc5ccccc54)ncn3)c(F)c2)c1=O | – | – | – | – | – | – | – | – | – | – | – | – | – | – | inactive | –
